Measured values reported in patent US7368126B2, “Controlled release depot formulations” (priority 2002, dated 2008).
Where a name gives a salt, the structure may show the parent alone.

How the values were obtained:
Solubility in water = format: physicochemical; settings: DI water
[1] = cited from earlier work

Row | concentration in deionized water at saturation (Solubility in water) [µg/mL] | Structure (SMILES) | reported solubility in water [1]
1 | 40000 | CCCCN1CCCCC1C(=O)Nc1c(C)cccc1C (centres unmarked) [Bupivacaine hydrochloride] | –
2 | – | CC(=O)OCC(COC(C)=O)OC(C)=O [triacetin] | 7.17 grams in 100 ml of water
